Data reported in ChEMBL document CHEMBL5241056, “Engagement of phytoestrogens in breast cancer suppression: Structural classification and mechanistic approach” (Eur J Med Chem, 2021).
Converted amounts (≈) assume the structure as drawn.

How the values were obtained:
MCF7 [1] = experiment: Antiproliferative activity against human MCF7 cells assessed as inhibition of cell growth incubated for 6 days by SRB assay; assay type: functional, cell-based; settings: MCF7, 144 h
[2] = Cytotoxicity against human MCF-10A cells assessed as inhibition of cell growth by MTT assay; assay type: toxicity, cell-based
MDA-MB-468 = experiment: Antiproliferative activity against human MDA-MB-468 cells assessed as inhibition of cell growth by MTT assay; assay type: functional, cell-based
Estrogen receptor = molecular target: T1, Estrogen receptor (Bos taurus, UniProt P49884); experiment: Displacement of [3H]-17beta-estradiol from bovine uterine estrogen receptor by competitive binding assay
T1 sequence (P49884 whole entry): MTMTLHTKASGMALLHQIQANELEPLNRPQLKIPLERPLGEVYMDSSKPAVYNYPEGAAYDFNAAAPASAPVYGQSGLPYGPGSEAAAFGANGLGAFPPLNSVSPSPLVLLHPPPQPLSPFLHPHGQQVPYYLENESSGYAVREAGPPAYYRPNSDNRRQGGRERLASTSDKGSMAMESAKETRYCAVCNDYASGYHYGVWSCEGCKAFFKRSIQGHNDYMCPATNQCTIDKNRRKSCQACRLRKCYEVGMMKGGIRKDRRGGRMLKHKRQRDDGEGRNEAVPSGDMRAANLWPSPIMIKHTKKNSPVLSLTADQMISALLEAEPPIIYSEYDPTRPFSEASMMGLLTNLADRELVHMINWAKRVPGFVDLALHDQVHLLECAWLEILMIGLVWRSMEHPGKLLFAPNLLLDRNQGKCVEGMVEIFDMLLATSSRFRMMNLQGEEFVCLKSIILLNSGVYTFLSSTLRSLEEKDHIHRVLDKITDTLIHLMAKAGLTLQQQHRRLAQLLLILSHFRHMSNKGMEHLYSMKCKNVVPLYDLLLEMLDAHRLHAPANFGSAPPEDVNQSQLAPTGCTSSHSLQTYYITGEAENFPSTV

MCF7 [3] = experiment: Antiproliferative activity against human MCF7 cells assessed as inhibition of cell growth incubated for 3 days by beta scintillation counting based [3H]-thymidine incorporation assay; assay type: functional
MCF7 [4] = experiment: Antiproliferative activity against human MCF7 cells assessed as inhibition of cell growth incubated for 2 days by WST-1 assay; assay type: functional, cell-based; settings: MCF7, 48 h
MCF7 [5] = experiment: Inhibition of DNA synthesis in human MCF7 cells incubated for 4 days by BrdU incorporation assay; assay type: functional, cell-based; settings: MCF7, 96 h
MCF7 [6] = experiment: Antiproliferative activity against human MCF7 cells assessed as inhibition of cell growth incubated for 0 to 5 days by MTT assay; assay type: functional, cell-based
Sulfotransferase 2A1 = molecular target: T2, Sulfotransferase 2A1 (Rattus norvegicus, UniProt P15709); experiment: Inhibition of rat SULT2A1-mediated dehydroepiandrosterone sulfonation incubated for 20 mins
T2 sequence (P15709 whole entry): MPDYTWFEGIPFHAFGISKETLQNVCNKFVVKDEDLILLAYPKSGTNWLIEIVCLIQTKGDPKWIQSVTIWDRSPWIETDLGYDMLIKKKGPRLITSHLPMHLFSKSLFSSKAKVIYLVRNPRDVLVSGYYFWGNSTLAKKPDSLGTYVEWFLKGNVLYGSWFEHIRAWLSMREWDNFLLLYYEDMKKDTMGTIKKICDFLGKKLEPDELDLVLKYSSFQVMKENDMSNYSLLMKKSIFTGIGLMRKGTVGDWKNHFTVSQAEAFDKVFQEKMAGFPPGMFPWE

Sulfotransferase 1A1 = Sulfotransferase 1A1 (Rattus norvegicus, UniProt P17988); experiment: Inhibition of rat liver SULT1A1-mediated oestradiol sulfonation incubated for 20 mins
[7] = Cytotoxicity against human MCF-10A cells assessed as inhibition of cell growth incubated for 24 to 96 hrs by MTT assay; assay type: toxicity, cell-based
MDA-MB-231 = experiment: Antiproliferative activity against human MDA-MB-231 cells assessed as inhibition of cell growth incubated for 24 to 96 hrs by MTT assay; assay type: functional, cell-based
MCF7 [8] = experiment: Antiproliferative activity against human MCF7 cells assessed as inhibition of cell growth incubated for 2 days by SRB assay; assay type: functional, cell-based; settings: MCF7, 48 h
MCF7 [9] = experiment: Antiproliferative activity against human MCF7 cells assessed as inhibition of cell growth incubated for 4 days by SRB assay; assay type: functional, cell-based; settings: MCF7, 96 h
[10] = Oral bioavailability in CD rat at 168 mg/kg administered daily for 14 days; assay type: ADME, organism-based; settings: in vivo, time 14 day
[11] = Oral bioavailability in CD rat at 50 mg/kg administered daily for 14 days; assay type: ADME, organism-based; settings: in vivo, time 14 day
Steryl-sulfatase [12] = molecular target: T3, Steryl-sulfatase (Rattus norvegicus, UniProt P15589); experiment: Inhibition of estrone sulfatase in homogeneous rat mammary tumors; assay type: tissue-based, Tumor
T3 sequence (P15589 whole entry): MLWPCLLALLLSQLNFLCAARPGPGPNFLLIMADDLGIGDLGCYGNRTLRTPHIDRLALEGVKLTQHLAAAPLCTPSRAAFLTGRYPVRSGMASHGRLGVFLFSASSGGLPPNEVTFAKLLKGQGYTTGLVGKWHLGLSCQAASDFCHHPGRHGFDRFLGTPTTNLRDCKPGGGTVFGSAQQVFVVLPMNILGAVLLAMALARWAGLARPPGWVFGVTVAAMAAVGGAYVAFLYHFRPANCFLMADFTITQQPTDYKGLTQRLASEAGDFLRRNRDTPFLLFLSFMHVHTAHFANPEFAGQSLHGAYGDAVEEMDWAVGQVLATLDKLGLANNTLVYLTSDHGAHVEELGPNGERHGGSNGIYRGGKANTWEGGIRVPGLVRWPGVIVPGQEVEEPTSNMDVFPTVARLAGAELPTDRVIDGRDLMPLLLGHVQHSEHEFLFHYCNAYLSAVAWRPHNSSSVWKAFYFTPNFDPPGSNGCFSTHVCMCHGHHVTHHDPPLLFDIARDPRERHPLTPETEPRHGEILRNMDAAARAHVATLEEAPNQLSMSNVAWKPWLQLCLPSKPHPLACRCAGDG

Steryl-sulfatase [13] = molecular target: T4, Steryl-sulfatase (Homo sapiens, UniProt P08842); experiment: Inhibition of estrone sulfatase in human MCF7 cell microsomes; parameters: species or system Microsome
T4 sequence (P08842 whole entry): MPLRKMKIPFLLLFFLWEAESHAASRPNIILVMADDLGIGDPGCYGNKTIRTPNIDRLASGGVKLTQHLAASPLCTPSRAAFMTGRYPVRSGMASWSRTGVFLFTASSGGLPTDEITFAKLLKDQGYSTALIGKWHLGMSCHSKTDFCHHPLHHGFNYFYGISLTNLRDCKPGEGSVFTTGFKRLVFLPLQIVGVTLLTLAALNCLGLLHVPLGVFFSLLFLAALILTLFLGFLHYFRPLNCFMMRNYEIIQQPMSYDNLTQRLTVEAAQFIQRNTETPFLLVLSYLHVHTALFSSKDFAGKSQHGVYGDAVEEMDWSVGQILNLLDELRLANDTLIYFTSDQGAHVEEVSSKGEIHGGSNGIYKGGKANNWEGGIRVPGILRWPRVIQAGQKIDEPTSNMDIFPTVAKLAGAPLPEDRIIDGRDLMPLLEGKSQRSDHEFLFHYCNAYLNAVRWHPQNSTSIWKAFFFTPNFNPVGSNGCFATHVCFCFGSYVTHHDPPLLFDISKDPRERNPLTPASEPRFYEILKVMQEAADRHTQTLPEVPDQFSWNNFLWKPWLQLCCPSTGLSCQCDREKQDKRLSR

Sulfotransferase 1A1, sequence (P17988 whole entry): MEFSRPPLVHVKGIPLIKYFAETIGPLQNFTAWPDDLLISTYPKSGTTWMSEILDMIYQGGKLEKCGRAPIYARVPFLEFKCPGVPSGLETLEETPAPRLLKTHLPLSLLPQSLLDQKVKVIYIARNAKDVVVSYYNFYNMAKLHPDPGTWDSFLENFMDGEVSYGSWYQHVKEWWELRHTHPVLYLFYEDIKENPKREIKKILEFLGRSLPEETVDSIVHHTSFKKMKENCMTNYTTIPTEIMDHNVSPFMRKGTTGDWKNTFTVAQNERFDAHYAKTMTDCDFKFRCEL

Q: Which IC50 (MCF7 [1]) does the source give for Oc1ccc(C2COc3cc(O)ccc3C2)cc1 (centres undefined) here?
A: 1 µM

Q: With O=C(O)[C@H]1O[C@@H](Oc2cc(O)c3c(=O)cc(-c4ccc(O)cc4)oc3c2)[C@H](O)[C@@H](O)[C@@H]1O as the molecule, how does the IC50 [2] read?
A: 42 µM

Q: What about the IC50 (MDA-MB-468) of the same molecule?
A: 13 µM

Q: For C=C[C@@H](/C=C\c1ccc(O)cc1)c1ccc(O)cc1, which IC50 (Estrogen receptor) is on record?
A: 0.06 µM

Q: Which IC50 (MCF7 [1]) does the source give for O=c1cc(-c2ccc(O)cc2)oc2cc(O)cc(O)c12 [APIGENIN] here?
A: 1 µM

Q: For O=c1cc(-c2ccccc2)oc2cc(O)c(O)c(O)c12 [BAICALEIN], which IC50 (MCF7 [3]) is on record?
A: 5.3 mg/L (≈ 19.6 µM)

Q: Which results are given for COc1ccc(-c2coc3cc(O)cc(O)c3c2=O)cc1 [BIOCHANIN]?
A: IC50 (MCF7 [4]): 40 mg/L (≈ 141 µM); IC50 (MCF7 [1]): 10 µM; IC50 (MCF7 [5]): 40 mg/L (≈ 141 µM)

Q: Which results are given for O=c1oc2cc(O)ccc2c2oc3cc(O)ccc3c12 [COUMESTROL]?
A: IC50 (MCF7 [1]): 0.04 µM; IC50 (MCF7 [6]): 50 µM

Q: With O=c1c(-c2ccc(O)cc2)coc2cc(O)ccc12 [DAIDZEIN] as the molecule, how does the IC50 (Sulfotransferase 2A1) read?
A: 34 µM

Q: And the IC50 (Sulfotransferase 1A1)?
A: 0.29 µM

Q: With O=c1cc(-c2ccccc2)oc2ccccc12 [FLAVONE] as the molecule, how does the IC50 (MCF7 [1]) read?
A: 0.3 µM

Q: For O=c1c(O)c(-c2ccccc2)oc2cc(O)cc(O)c12 [GALANGIN], which IC50 (MCF7 [3]) is on record?
A: 4.2 mg/L (≈ 15.5 µM)

Q: For O=c1c(-c2ccc(O)cc2)coc2cc(O)cc(O)c12 [GENISTEIN], which IC50 (Sulfotransferase 2A1) is on record?
A: 34 µM

Q: What about the IC50 (Sulfotransferase 1A1) of the same molecule?
A: 0.29 µM

Q: For COc1cc(O)c2c(=O)cc(-c3ccc(O)cc3)oc2c1 [GENKWANIN], which IC50 [2] is on record?
A: 75 µM

Q: And the IC50 (MDA-MB-468)?
A: 1.6 µM

Q: Which IC50 [7] does the source give for O=C(/C=C/c1ccc(O)cc1)c1ccc(O)cc1O [ISOLIQUIRITIGENIN] here?
A: 25 µM

Q: And the IC50 (MDA-MB-231)?
A: 25 µM

Q: With COc1cc(O)c(CC=C(C)C)c2c1C(=O)CC(c1ccc(O)cc1)O2 (centres undefined) [ISOXANTHOHUMOL] as the molecule, how does the IC50 (MCF7 [8]) read?
A: 15.3 µM

Q: And the IC50 (MCF7 [9])?
A: 4.69 µM

Q: For O=c1c(O)c(-c2ccc(O)cc2)oc2cc(O)cc(O)c12 [KAEMPFEROL], which IC50 (Sulfotransferase 2A1) is on record?
A: 34 µM

Q: And the IC50 (MCF7 [1])?
A: 50 µM

Q: And the IC50 (Sulfotransferase 1A1)?
A: 0.29 µM

Q: With O=c1cc(-c2ccc(O)c(O)c2)oc2cc(O)cc(O)c12 [LUTEOLIN] as the molecule, how does the IC50 (MCF7 [1]) read?
A: 5 µM

Q: With C#C[C@]1(O)CC[C@H]2[C@@H]3CCc4cc(OC)ccc4[C@H]3CC[C@@]21C [MESTRANOL] as the molecule, how does the IC50 (MCF7 [1]) read?
A: 0.04 µM

Q: For O=C1C[C@@H](c2ccc(O)cc2)Oc2cc(O)cc(O)c21 [NARINGENIN], which IC50 (MCF7 [1]) is on record?
A: 0.3 µM

Q: Which IC50 (Estrogen receptor) does the source give for C=C[C@H](/C=C\c1ccc(O)cc1)c1ccc(O)cc1 [NYASOL] here?
A: 0.4 µM

Q: For O=C(CCc1ccc(O)cc1)c1c(O)cc(O)cc1O [PHLORETIN], which IC50 (MCF7 [1]) is on record?
A: 7 µM

Q: With COc1cc(/C=C/c2ccc(O)cc2)cc(OC)c1 [PTEROSTILBENE] as the molecule, how does the bioavailability [10] read?
A: 80%

Q: Which results are given for O=c1c(O)c(-c2ccc(O)c(O)c2)oc2cc(O)cc(O)c12 [QUERCETIN]?
A: IC50 (Sulfotransferase 2A1): 34 µM; IC50 (MCF7 [1]): 5 µM; IC50 (Sulfotransferase 1A1): 0.29 µM

Q: For Oc1ccc(/C=C/c2cc(O)cc(O)c2)cc1 [RESVERATROL], which bioavailability [11] is on record?
A: 20%

Q: Which IC50 [2] does the source give for COc1ccc(-c2cc(=O)c3c(OC)c(OC)c(OC)cc3o2)cc1OC [SINENSETIN] here?
A: 65 µM

Q: What about the IC50 (MDA-MB-468) of the same molecule?
A: 0.2 µM

Q: Which IC50 (Steryl-sulfatase [12]) does the source give for C[C@H]1[C@H](C)CC[C@]2(C(=O)O)CC[C@]3(C)C(=CC[C@@H]4[C@@]5(C)CC[C@H](O)C(C)(C)[C@@H]5CC[C@]43C)[C@H]12 [URSOLIC ACID] here?
A: 0.131 µM

Q: And the IC50 (Steryl-sulfatase [13])?
A: 0.263 µM

Q: With COc1cc2c(c(O)c1C(=O)/C=C/c1ccc(O)cc1)C=CC(C)(C)O2 [XANTHOHUMOL C] as the molecule, how does the IC50 (MCF7 [8]) read?
A: 15.7 µM

Q: What about the IC50 (MCF7 [9]) of the same molecule?
A: 6.87 µM

Q: With COc1cc(O)c(CC=C(C)C)c(O)c1C(=O)/C=C/c1ccc(O)cc1 [XANTHOHUMOL] as the molecule, how does the IC50 (MCF7 [8]) read?
A: 13.3 µM

Q: And the IC50 (MCF7 [9])?
A: 3.47 µM
